The source made the active and inactive calls. No cut-off for these calls is given here.

One may read the EC50 as the concentration giving half of the maximal effect. Low readings indicate a more potent agent, high ones a less potent agent. In general, IC50 refers to the concentration at which inhibition is half-maximal. A high value points to weaker potency. The inhibition is the share of the control response that was lost under treatment. Read a high inhibition as a response far below the control. The Inhibition is the percentage by which the read-out fell short of the control.

The test system of data set [1] is Human immunodeficiency virus 1. The data set can be described thus: Anti-HIV activity in cell culture assay expressed as EC50 values. It is filed as functional, organism-based.
The subject of data set [2] is Human immunodeficiency virus 1. The data set can be described thus: (§1) Therapeutic index was determined. To be noted: read-out: Therapeutic index.
In data set [3] the test system is Human immunodeficiency virus 1. The data set can be described thus: Compound was tested for anti-HIV activity in cell culture assay expressed as IC50 values. The class given is functional, organism-based.
The subject of data set [4] is Human immunodeficiency virus 1. The data set can be described thus: Inhibition against HIV replication in cell culture at 20 ug/mL. It is filed as functional. To be noted: for inhibition at 20 µg/mL: Human immunodeficiency virus 1.
For data set [5], the target named is Human immunodeficiency virus type 1 reverse transcriptase (Human immunodeficiency virus 1) (UniProt Q72547). The data set can be described thus: Inhibition against HIV- reverse transcriptase in cell culture at 20 ug/mL.
The subject of data set [6] is Human immunodeficiency virus 1. The data set can be described thus: Compound was tested for anti-HIV activity in cell culture assay; active anti HIV agent. The class given is functional, organism-based.
Data set [7] can be described thus: as §1. The conditions noted are these: Human immunodeficiency virus 1.
The subject of data set [8] is Human immunodeficiency virus 1. The data set can be described thus: Anti-HIV activity in cell culture assay expressed as IC50 values. The class given is functional, organism-based.

The molecule `O=C(O[C@@H]1O[C@H](CO)[C@@H](O)[C@H](O)[C@H]1O)c1cc(O)c(O)c(O)c1` registered an EC50 in data set [1] (Human immunodeficiency virus 1) of 100 µM. Further, in data set [2], the selectivity ratio is 0.8. In data set [3], this molecule had an IC50 of 80 µM. In addition, in data set [4], the inhibition at 20 µg/mL came to 0%. In addition, in data set [5], the inhibition was found to be 18%.

Take `O=C(Oc1c(O)cc(C(=O)O[C@@H]2C[C@@](O)(C(=O)O)C[C@@H](OC(=O)c3cc(O)c(O)c(O)c3)[C@@H]2OC(=O)c2cc(O)c(O)c(O)c2)cc1O)c1cc(O)c(O)c(O)c1`: the Activity entry in data set [6] is “active anti HIV agent”.

For `O=C(O[C@@H]1C[C@](OC(=O)c2cc(O)c(O)c(O)c2)(C(=O)O)C[C@@H](OC(=O)c2cc(O)c(O)c(O)c2)[C@H]1OC(=O)c1cc(O)c(O)c(O)c1)c1cc(O)c(O)c(O)c1`, the result in data set [6] was Active.

For the molecule `O=C1OC(C2OC(=O)c3cc(O)c(O)c(O)c3-c3c(O)c(O)c4oc(=O)c5c(c(O)c(O)c6oc(=O)c3c4c65)-c3c(cc(O)c(O)c3O)C(=O)OCC2O)C2OC(=O)c3c(c(O)c(O)c(O)c3[C@H]2O)-c2c1cc(O)c(O)c2O` (stereo not given in full), the Activity result in data set [6] is “active anti HIV agent”.

As to `O=C1OC[C@H]2O[C@@H](O)[C@H](O)[C@@H](O)[C@@H]2OC(=O)c2cc(O)c(O)c(O)c2-c2c(O)c(O)c3oc(=O)c4c(c(O)c(O)c5oc(=O)c2c3c54)-c2c1cc(O)c(O)c2O`, the Activity entry in data set [6] is “active anti HIV agent”.

Turning to `O=C(Oc1c(O)cc(C(=O)O[C@H]2[C@H](OC(=O)c3cc(O)c(O)c(O)c3)C[C@](O)(C(=O)O)C[C@H]2OC(=O)c2cc(O)c(O)c(O)c2)cc1O)c1cc(O)c(O)c(O)c1`, in data set [6], the Activity result was “active anti HIV agent”.

For the molecule `O=C(OC[C@H]1O[C@@H](OC(=O)c2cc(O)c(O)c(O)c2)[C@H](OC(=O)c2cc(O)c(O)c(O)c2)[C@@H](OC(=O)c2cc(O)c(O)c(O)c2)[C@@H]1OC(=O)c1cc(O)c(O)c(O)c1)c1cc(O)c(O)c(O)c1` (stereo in doubt; 10) [PENTAGALLOYL GLUCOSE], the EC50 in data set [1] was determined as 15 µM. The same molecule had a Therapeutic index in data set [7] of 1.3. The molecule also displayed an Inhibition in data set [4] of 60%. Moreover, the IC50 in data set [8] is 19 µM.

In the case of `O=C(Oc1c(O)cc(C(=O)O[C@@H]2C[C@](O)(C(=O)O)C[C@@H](OC(=O)c3cc(O)c(O)c(O)c3)[C@H]2OC(=O)c2cc(O)c(O)c(O)c2)cc1O)c1cc(O)c(O)c(O)c1`, the Activity result in data set [6] is “active anti HIV agent”.

Take `O=C(OC[C@H]1O[C@@H](OC(=O)c2cc(O)c(O)c(O)c2)[C@H](O)[C@@H](O)[C@@H]1O)c1cc(O)c(O)c(O)c1`: the EC50 in data set [1] (Human immunodeficiency virus 1) was 50 µM. The selectivity ratio in data set [2] was found to be 0.8. The molecule also had an IC50 in data set [3] of 38 µM. In data set [4], this molecule registered an inhibition at 20 µg/mL of 40%. Further, the inhibition in data set [5] was 14%.

The values are drawn from ChEMBL document CHEMBL1126373, “HIV and reverse transcriptase inhibition by tannins” (Bioorg Med Chem Lett, 1992).
